Measured values reported in patent US10829499B2, “Tetracyclic heterocycle compounds useful as HIV integrase inhibitors” (MERCK SHARP & DOHME CORP., priority 2016, dated 2020).
Read-outs that look alike come from different tables or passages of the source.

System: HIV-1 (NL4-3 strain)
Test: Assay for Inhibition of HIV Replication (kinetic assay, MT4-gag-GFP reporter cell line; VIKING)
Assay type: cell-based
Description: This assay is a kinetic assay that employs a reporter cell line (MT4-gag-GFP) to quantify the number of new cells infected in each round of replication.
MT4-GFP cells (250,000 cells/ml) were bulk-infected with HIV-1 (NL4-3 strain) at low multiplicity of infection (MOI) in RPMI cell culture medium+10% FBS for 24 hours. Cells were then washed once in RPMI cell culture medium+10% FBS and resuspended in RPMI cell culture medium+0% or 10% or 100% normal human serum (NHS). Test compounds were serial-diluted in DMSO on an ECHO® liquid handler. The infected MT4-GFP cells were added to a 384-well poly-D-lysine coated black plate with clear bottom in which the diluted test compounds were placed. The cells were seeded at 8,000 cells per well and the final DMSO concentration was 0.4%. The infected cells (Green GFP cells) were quantified at both 24 and 48 hours post incubation using Acumen eX3. Viral reproductive ratio (R0) was determined using the number of infected cells at 48 hours divided by the number of infected cells at 24 hours. Percent viral growth inhibition was calculated by [1-(R-Rtripledrug),/(RDMSO-Rtripledrug)]*100. Compound potency IP or IC50 was determined by a 4-parameter dose response curve analysis. In vitro potency in the cell-based assay in the absence of normal human serum (NHS) and the presence of 100% NHS.

[1] = Human immunodeficiency virus 1, NL43, MT4-GFP cells infected with HIV-1 NL4-3, 100% normal human serum (NHS), read-out: VIKING IP50 (nM) with 100% NHS
[2] = MT4-GFP cells infected with HIV-1 NL4-3, 0% normal human serum (NHS), read-out: VIKING IP50 (nM) with 0% NHS
[3] = MT4-GFP cells infected with HIV-1 NL4-3, 100% normal human serum (NHS), read-out: VIKING IP50 (nM) with 100% NHS
[4] = Human immunodeficiency virus 1, NL43, MT4-GFP cells infected with HIV-1 NL4-3, 0% normal human serum (NHS), read-out: VIKING IP50 (nM) with 0% NHS

Structure (SMILES) | IC50 [1] [nM] | IC50 [2] [nM] | IC50 [3] [nM] | IC50 [4] [nM]
C[C@H]1CN2C(=O)c3c(O)c(=O)c(C(=O)NCc4cccc(Cl)c4F)c4n3C(CC4)C2N1 (stereo partly shown) [Compound 93] | 49 | 1.14 |  | 
C[C@H]1CN2C(=O)c3c(O)c(=O)c(C(=O)NCc4cccc(Cl)c4F)c4n3C(CC4)C2N1 (stereo partly shown) [Compound 94] |  | 0.503 | 14.5 | 
C[C@H]1CN2C(=O)c3c(O)c(=O)c(C(=O)NCc4ccc(F)cc4F)c4n3C(CC4)C2N1 (stereo partly shown) [Compound 95] | 124 |  |  | 2.59
C[C@H]1CN2C(=O)c3c(O)c(=O)c(C(=O)NCc4ccc(F)cc4F)c4n3C(CC4)C2N1 (stereo partly shown) [Compound 96] |  | 2.04 | 13.8 | 
C[C@H]1CN2C(=O)c3c(O)c(=O)c(C(=O)NCc4ccc(F)cc4F)c4n3C(CC4)C2N1 (stereo partly shown) [Compound 97] |  | 4.3 | 48.3 | 
C[C@H]1CN2C(=O)c3c(O)c(=O)c(C(=O)NCc4ccc(F)cc4F)c4n3C(CC4)C2N1 (stereo partly shown) [Compound 98] |  | 1.48 | 16 | 
C[C@H]1CNC2C3CCc4c(C(=O)NCc5ccc(F)cc5F)c(=O)c(O)c(n43)C(=O)N21 (stereo partly shown) [Compound 99] |  |  | 19.2 | 2.28
C[C@H]1CNC2C3CCc4c(C(=O)NCc5ccc(F)cc5F)c(=O)c(O)c(n43)C(=O)N21 (stereo partly shown) [Compound 100] |  | 1.94 | 56.5 | 
C[C@H]1CNC2C3CCc4c(C(=O)NCc5ccc(F)cc5F)c(=O)c(O)c(n43)C(=O)N21 (stereo partly shown) [Compound 101] |  | 1.99 | 23.4 | 
C[C@H]1CN2C(=O)c3c(O)c(=O)c(C(=O)NCc4cccc(Cl)c4F)c4n3C(CC4)C2N1C (stereo partly shown) [Compound 102] | 579 |  |  | 1.05
C[C@H]1CN2C(=O)c3c(O)c(=O)c(C(=O)NCc4cccc(Cl)c4F)c4n3C(CC4)C2N1C (stereo partly shown) [Compound 103] |  | 1.45 | 15.4 | 
C[C@H]1CN2C(=O)c3c(O)c(=O)c(C(=O)NCc4cccc(Cl)c4F)c4n3C(CC4)C2N1C (stereo partly shown) [Compound 104] |  | 0.397 | 71.4 | 
C[C@H]1CN2C(=O)c3c(O)c(=O)c(C(=O)NCc4cccc(Cl)c4F)c4n3C(CC4)C2N1C (stereo partly shown) [Compound 105] |  | 0.495 | 32.6 | 
CC(C)N1C2C3CCc4c(C(=O)NCc5cccc(Cl)c5F)c(=O)c(O)c(n43)C(=O)N2C[C@@H]1C (stereo partly shown) [Compound 106] | 88.9 |  |  | 3.68
CCCN1C2C3CCc4c(C(=O)NCc5cccc(Cl)c5F)c(=O)c(O)c(n43)C(=O)N2C[C@@H]1C (stereo partly shown) [Compound 107] |  | 2.82 | 272 | 
CCCN1C2C3CCc4c(C(=O)NCc5cccc(Cl)c5F)c(=O)c(O)c(n43)C(=O)N2C[C@@H]1C (stereo partly shown) [Compound 108] |  | 1.17 | 80.1 | 
C[C@H]1CN(C)C2C3CCc4c(C(=O)NCc5cccc(Cl)c5F)c(=O)c(O)c(n43)C(=O)N21 (stereo partly shown) [Compound 109] |  |  | 480 | 1.17
C[C@H]1CN(C)C2C3CCc4c(C(=O)NCc5cccc(Cl)c5F)c(=O)c(O)c(n43)C(=O)N21 (stereo partly shown) [Compound 110] |  | 0.733 | 67.8 | 
CCN1C[C@H](C)N2C(=O)c3c(O)c(=O)c(C(=O)NCc4cccc(Cl)c4F)c4n3C(CC4)C12 (stereo partly shown) [Compound 111] |  |  | 260 | 1.19
CCN1C[C@H](C)N2C(=O)c3c(O)c(=O)c(C(=O)NCc4cccc(Cl)c4F)c4n3C(CC4)C12 (stereo partly shown) [Compound 112] |  | 0.806 | 40.4 | 
CCCN1C[C@H](C)N2C(=O)c3c(O)c(=O)c(C(=O)NCc4cccc(Cl)c4F)c4n3C(CC4)C12 (stereo partly shown) [Compound 113] | 291 |  |  | 3.58
CCCN1C[C@H](C)N2C(=O)c3c(O)c(=O)c(C(=O)NCc4cccc(Cl)c4F)c4n3C(CC4)C12 (stereo partly shown) [Compound 114] |  | 6.36 | 175 | 
CC(C)N1C[C@H](C)N2C(=O)c3c(O)c(=O)c(C(=O)NCc4cccc(Cl)c4F)c4n3C(CC4)C12 (stereo partly shown) [Compound 115] | 113 |  |  | 7.4
C[C@H]1CN(S(C)(=O)=O)C2C3CCc4c(C(=O)NCc5cccc(Cl)c5F)c(=O)c(O)c(n43)C(=O)N21 (stereo partly shown) [Compound 117] | 130 |  |  | 3.78
C[C@H]1CN2C(=O)c3c(O)c(=O)c(C(=O)NCc4cccc(Cl)c4F)c4n3C(CC4)C2N1S(C)(=O)=O (stereo partly shown) [Compound 118] |  |  | 1280 | 8.73
C[C@H]1CN2C(=O)c3c(O)c(=O)c(C(=O)NCc4cccc(Cl)c4F)c4n3C(CC4)C2N1S(C)(=O)=O (stereo partly shown) [Compound 119] |  | 8.77 | 445 | 
CC(=O)N1C[C@H](C)N2C(=O)c3c(O)c(=O)c(C(=O)NCc4cccc(Cl)c4F)c4n3C(CC4)C12 (stereo partly shown) [Compound 120] |  | 1.19 | 24.5 | 

Structure (SMILES) | IC50 [1] [nM] | IC50 [2] [nM] | IC50 [3] [nM] | IC50 [4] [nM]
CC(=O)N1C[C@H](C)N2C(=O)c3c(O)c(=O)c(C(=O)NCc4cccc(Cl)c4F)c4n3C(CC4)C12 (stereo partly shown) [Compound 121] | 308 |  |  | 1.45
CC(=O)N1C2C3CCc4c(C(=O)NCc5cccc(Cl)c5F)c(=O)c(O)c(n43)C(=O)N2C[C@@H]1C (stereo partly shown) [Compound 122] | 30.1 |  |  | 2.17
CC(=O)N1C2C3CCc4c(C(=O)NCc5cccc(Cl)c5F)c(=O)c(O)c(n43)C(=O)N2C[C@@H]1C (stereo partly shown) [Compound 123] |  | 2.56 | 58.6 | 
COC1CC2C3N(C)CCN3C(=O)c3c(O)c(=O)c(C(=O)NCc4ccc(F)cc4F)c1n32 (stereo not shown) [Compound 124] |  | 7.41 | 28 | 
COC1CC2C3N(C)CCN3C(=O)c3c(O)c(=O)c(C(=O)NCc4ccc(F)cc4F)c1n32 (stereo not shown) [Compound 125] |  | 10.3 | 57.7 | 
COC1CC2C3N(C)CCN3C(=O)c3c(O)c(=O)c(C(=O)NCc4ccc(F)cc4F)c1n32 (stereo not shown) [Compound 126] |  | 2.42 | 211 | 
COC1CC2C3N(C)CCN3C(=O)c3c(O)c(=O)c(C(=O)NCc4ccc(F)cc4F)c1n32 (stereo not shown) [Compound 127] |  | 1.2 | 11.7 | 
C[C@H]1CNC2C3CCc4c(-c5nnc(Cc6ccc(F)cc6F)s5)c(=O)c(O)c(n43)C(=O)N21 (stereo partly shown) [Compound 128] | 361 | 6.69 |  | 
C[C@H]1CNC2C3CCc4c(-c5nnc(Cc6ccc(F)cc6F)s5)c(=O)c(O)c(n43)C(=O)N21 (stereo partly shown) [Compound 129] |  | 15.3 | 283 | 
C[C@H]1CN2C(=O)c3c(O)c(=O)c(-c4nnc(Cc5ccc(F)cc5F)s4)c4n3C(CC4)C2N1 (stereo partly shown) [Compound 130] |  |  | 92.8 | 3.53
C[C@H]1CN2C(=O)c3c(O)c(=O)c(-c4nnc(Cc5ccc(F)cc5F)s4)c4n3C(CC4)C2N1 (stereo partly shown) [Compound 131] |  | 2.33 | 36.1 | 
CC12OCCCN1C(=O)c1c(O)c(=O)c(C(=O)NCc3ccc(F)cc3F)c3n1C2CC3 (stereo not shown) [Compound 133] |  |  | 617 | 0.93
CC12OCCCN1C(=O)c1c(O)c(=O)c(C(=O)NCc3ccc(F)cc3F)c3n1C2CC3 (stereo not shown) [Compound 134] |  | 1.29 | 20.5 | 
CC12OCCCN1C(=O)c1c(O)c(=O)c(C(=O)NCc3ccc(F)cc3F)c3n1C2CC3 (stereo not shown) [Compound 135] |  | 0.791 | 1280 | 
CC12NCCN1C(=O)c1c(O)c(=O)c(C(=O)NCc3ccc(F)cc3F)c3n1C2CC3 (stereo not shown) [Compound 138] |  | 2.41 | 27 | 
CN1CCN2C(=O)c3c(O)c(=O)c(C(=O)NCc4ccc(F)cc4F)c4n3C(CC4)C12C (stereo not shown) [Compound 140] |  | 0.557 | 11.3 | 
CN1CCCN2C(=O)c3c(O)c(=O)c(C(=O)NCc4ccc(F)cc4F)c4n3C(CC4)C12C (stereo not shown) [Compound 142] |  | 0.504 | 9.41 | 
O=C(NCc1cccc(Cl)c1F)c1c2n3c(c(O)c1=O)C(=O)N1C4CCC(C4)OC1C3CC2 (stereo not shown) [Compound 152] |  |  | 2100 | 5.52
O=C(NCc1cccc(Cl)c1F)c1c2n3c(c(O)c1=O)C(=O)N1C4CCC(C4)OC1C3CC2 (stereo not shown) [Compound 153] |  | 4.53 | 95.5 | 
O=C(NCc1cccc(Cl)c1F)c1c2n3c(c(O)c1=O)C(=O)N1C4CCC(C4)OC1C3CC2 (stereo not shown) [Compound 154] |  | 4.14 | 79.2 | 
O=C(NCc1cccc(Cl)c1F)c1c2n3c(c(O)c1=O)C(=O)N1C4CCC(C4)OC1C3CC2 (stereo not shown) [Compound 155] |  | 2.77 | 7460 | 
O=C(NCc1ccc(F)c(Cl)c1F)c1c2n3c(c(O)c1=O)C(=O)N1C4CCC(C4)OC1C3CC2 (stereo not shown) [Compound 156] |  | 11.8 | 5270 | 
O=C(NCc1ccc(F)c(Cl)c1F)c1c2n3c(c(O)c1=O)C(=O)N1C4CCC(C4)OC1C3CC2 (stereo not shown) [Compound 157] |  | 12.9 | 733 | 
O=C(NCc1ccc(F)c(Cl)c1F)c1c2n3c(c(O)c1=O)C(=O)N1C4CCC(C4)OC1C3CC2 (stereo not shown) [Compound 158] |  | 4 | 16100 | 
O=C(NCc1ccc(F)c(Cl)c1F)c1c2n3c(c(O)c1=O)C(=O)N1C4CCC(C4)OC1C3CC2 (stereo not shown) [Compound 159] |  | 5.85 | 89.3 | 
O=C(NCc1ccc(F)cc1)c1c2n3c(c(O)c1=O)C(=O)N1C4CCC(C4)OC1C3CC2 (stereo not shown) [Compound 160] |  |  | 73.1 | 4.14
